Experimental findings from patent US20030224000A1, “Methods for blocking or alleviating staphylococcal nasal colonization by intranasal application of monoclonal antibodies” (priority 2001, published 2003) are described below.

Test [1] has as its system S. aureus strain MBT 5040. The experiment in a line: Minimal inhibitory concentration (MIC). The test is classed as cell-based. Conditions: Staphylococcus aureus; S. aureus MBT 5040, clinical MRSA strain.
Test [2] has as its system streptomycin resistant S. aureus type 5 (SA5). The experiment in a line: Mouse nasal colonization model, S. aureus preincubated with MAb before instillation. The test is classed as in vivo, mice. As for the experimental part: Kiser et al. developed a staphylococcal nasal colonization model in mice to study staphylococcal factors that influence nasal colonization (30). […] Briefly, streptomycin resistant S. aureus type 5 was grown on high salt Columbia agar to promote capsule formation. The bacteria were washed with sterile saline to remove media components and resuspended at ˜10^8 organisms/animal dose in saline containing various concentrations and combinations of anti-staphylococcal or irrelevant control MAbs. Following a preincubation of 1 hr, the bacteria were repelleted and resuspended in a final volume of 10 μl per animal dose in either saline or saline containing antibody. Mice that have been maintained on streptomycin-containing water for 24 hrs were sedated with anesthesia. Staphylococci were instilled in the nares of the mice by pipetting without contact with the nose.
Generally, following four to seven days during which the animals were maintained on streptomycin-containing water, the animals were sacrificed and the noses removed surgically and dissected. Nasal tissue was vortexed vigorously in saline plus 0.5% Tween-20 to release adherent bacteria, and the saline was plated on Columbia blood agar and tryptic soy agar containing streptomycin to determine colonization.
According to this procedure, streptomycin-resistant S. aureus type 5 (SA5, 1 to 3×10^8/mouse) was preincubated for 1 hr in saline or saline containing A110 (2-3 mg purified IgG/mouse dose of 1-3×10^8 bacteria). Following preincubation, the bacteria were pelleted and resuspended in saline or in saline containing A110 (10 μl/mouse dose). Ten mice each were intranasally instilled with SA5 in saline or SA5 in A110. Table 4 tabulates three experiments showing that nasal application of A110 in PBS blocks and alleviates staphylococcal nasal colonization.

[3] abbreviates: Table 5: 2 × 10^8 SA5 instilled with MAb, 2 mg/mouse dose.

Broadly, the MIC is the smallest concentration in the dilution series that meets the test's criterion for growth inhibition. Higher therefore signals weaker potency. As to `COc1cccc(OC)c1C(=O)N[C@@H]1C(=O)N2[C@@H]1SC(C)(C)[C@@H]2C(=O)O` [methicillin], the MIC in test [1] is > 36 µg/mL.

Take “Medi 493: irrelevant control, chimeric IgG1 MAb against RSV (MedImmune)”: in test [2] (MAb in saline, Table 5 experiment), the “Effect on staphylococcal nasal colonization in mice” value is given as “no effect”. Further, in test [2] (setting [3]), the “Average number of colonies recovered per mouse” value came out at 137 and the “Number of mice colonized” value is 9/9.
